Data: ChEMBL document CHEMBL1139295, “Two new cytotoxic diterpenes from the rhizomes of Hedychium spicatum” (Bioorg Med Chem Lett, 2009)
In brackets after ≈: the same amount, converted by molar mass. Activity calls are given as the source filed them. No cut-off for these calls is given here.

How the values were obtained:
COLO 205 = assay: Cytotoxicity against human COLO205 cells; type: functional, cell-based
A-431 = assay: Cytotoxicity against human A431 cells; type: functional, cell-based
MCF7 = assay: Cytotoxicity against human MCF7 cells; type: functional, cell-based
A549 = assay: Cytotoxicity against human A549 cells; type: functional, cell-based
CHO = assay: Cytotoxicity against CHO cells; type: cell-based; settings: Cricetulus griseus

| SMILES | IC50 (COLO 205) | IC50 (A-431) | IC50 (MCF7) | Activity (A549) | IC50 (CHO) | IC50 (A549) |
| --- | --- | --- | --- | --- | --- | --- |
| C=C1[C@@H](O)C[C@H]2C(C)(C)CCC[C@]2(C)[C@H]1C/C=C1/CCOC1=O | 29.8 µg/mL (≈ 93.6 µM) | 31.5 µg/mL (≈ 99 µM) | 33.5 µg/mL (≈ 105 µM) | inactive | 21.3 µg/mL (≈ 67 µM) |  |
| COc1cc(O)c2c(=O)cc(-c3ccccc3)oc2c1 [TECHTOCHRYSIN] | 37.1 µg/mL (≈ 138 µM) | 39 µg/mL (≈ 145 µM) | 51 µg/mL (≈ 190 µM) |  | 23.5 µg/mL (≈ 87.7 µM) | 49.6 µg/mL (≈ 185 µM) |
| O=c1c(O)c(-c2ccccc2)oc2cc(O)cc(O)c12 [GALANGIN] | 33.1 µg/mL (≈ 123 µM) | 39.4 µg/mL (≈ 146 µM) | 53.1 µg/mL (≈ 196 µM) |  | 27 µg/mL (≈ 99.8 µM) | 54.2 µg/mL (≈ 201 µM) |
| C=C1CC(=O)[C@H]2C(C)(C)CCC[C@]2(C)[C@H]1C/C=C1\CC(O)OC1=O (stereo not given in full) | 27.6 µg/mL (≈ 82.9 µM) | 30.5 µg/mL (≈ 91.8 µM) | 49.3 µg/mL (≈ 148 µM) | inactive | 20.4 µg/mL (≈ 61.2 µM) |  |
| CC1=C(O)C(=O)[C@H]2C(C)(C)CCC[C@]2(C)[C@H]1/C=C/C1=CC(=O)OC1 | 12 µg/mL (≈ 36.4 µM) | 16 µg/mL (≈ 48.5 µM) | 21.1 µg/mL (≈ 63.7 µM) |  | 7.69 µg/mL (≈ 23.3 µM) | 38 µg/mL (≈ 115 µM) |
| CC1=CC(=O)[C@H]2C(C)(C)CCC[C@]2(C)[C@@]1(O)/C=C/c1ccoc1 | 24 µg/mL (≈ 76.4 µM) | 26.1 µg/mL (≈ 83 µM) | 30.9 µg/mL (≈ 98.4 µM) |  | 15.7 µg/mL (≈ 49.9 µM) | 41.2 µg/mL (≈ 131 µM) |
| C=C1C[C@@H](O)[C@H]2C(C)(C)CCC[C@]2(C)[C@H]1/C=C/c1ccoc1 [YUNNACORONARIN A] | 27.1 µg/mL (≈ 90.3 µM) | 29 µg/mL (≈ 96.6 µM) | 28 µg/mL (≈ 93.4 µM) |  | 17.9 µg/mL (≈ 59.5 µM) | 46.6 µg/mL (≈ 155 µM) |
